# Reference: patent publication US20220241311A1, “METHODS AND MATERIALS FOR TREATING GLYCOSYLATION DISORDERS” (priority 2018, published 2022)
# Columns and labels:
# PGM1-CDG patients = assay: Oral D-gal supplementation: laboratory studies in blood (liver transaminases, coagulation, glycoproteins, CK, glucose); type: in vivo, human
# Excerpt: The study design was an open-label prospective study. Patients with biochemically and genetically confirmed PGM1 deficiency were recruited into the study. Individuals with an existing diagnosis of aldolase B deficiency, galactosemia, hemolytic uremic syndrome, severe anemia, galactose intolerance, or intellectual disability were excluded from the study. Nine patients were enrolled in the study, five females and four males. Patient age ranged from 19 months to 21 years old at the time of enrollment (mean age 9.75 years). Informed written consent was obtained before the start of study. A primary end-point was to assess the safety and tolerability of oral D-gal supplementation and to identify physiological biomarkers that are responsive to D-gal supplementation in a heterogeneous genetic background. The effect of D-gal in PGM1-CDG patients was also monitored via glycomics. Secondary endpoints were the restoration of the plasma glycan subfractions, monitored via glycomics (Table 3), and normalization of antithrombin III activity and serum alanine transaminase (ALT) levels.
# The D-gal intake was increased over the study period in increments as follows: weeks 0-6 (T0-T1), 0.5 g/kg per day; weeks 6-12 (T1-T2), 1.0 g/kg per day; weeks 12-18 (T2-T3), 1.5 g/kg per day (FIG. 2). The intake was increased gradually to reach the recommended maximum daily dose with minimal gastrointestinal irritation (diarrhea, stomachache, nausea) and metabolic side effects (presence of urinary galactitol).
# Dietary assessment, clinical evaluation (general physical examination and anthropometric measurements), and laboratory and biochemical studies were completed every 6 weeks (T0, T1, T2 and T3).
# Liver transaminases (aspartate transaminase (AST) and alanine transaminase (ALT)), creatine kinase (CK), commonly assayed glycoproteins (thyroid stimulating hormone (TSH), thyroxine-binding globulin (TBG), and insulin-like growth factor binding protein 3 (IGF3BP)), and coagulation parameters (Factor IX, Factor XI, activated […] (aPTT), and anti-thrombin III (ATIII)), were measured in blood. Patent 1 had additional Factor XI, and XIII measurements. Serum galactose-1-phosphate and urine galactitol were measured to monitor safety and tolerability of galactose supplementation. Biochemical studies to evaluate changes in glycosylation included isoelectric focusing (IEF) of serum transferrin and glycomic analysis in blood by mass spectrometry.
# Patient 1 remained on D-gal 1 g/kg/day after the study period as D-gal is the only currently available compassionate treatment for PGM1-CDG. The parameters monitored during the study period, including additional coagulation factor measurements, have been followed as part of routine care (Table 4).
# Quantitative data are presented as the mean±standard error of the mean.
# [1] = test system: healthy controls (WT) fibroblasts; assay: Nucleotide sugar analysis (UPLC-PDA), healthy controls; type: cell-based, human
# Experimental: Levels of nucleotides and sugar-nucleotides were determined. Fibroblast cell pellets (5×10^6 cells per sample) were lysed and extracted in 0.37 ml ice-cold 0.5 M perchloric acid with sonication on ice. Samples were neutralized with 86 μl ice-cold neutralization solution (2.5 M KOH in 1.5 M K2HPO4) after 5 minute sonication. To remove precipitated potassium perchlorate neutralized samples were centrifuged at 4° C. and 16,400×g for 10 minutes and filtered with 0.2 μm filters. Nucleotides and sugar-nucleotides were immediately analyzed and separated via ion-pair reverse phased chromatography using an Acquity HSS T3 column (150 mm×2.1 mm, 1.7 μm, Waters) connected to an Acquity H-class UPLC system. The column temperature was set to 40° C. and the column was equilibrated with solvent A (50 mM potassium phosphate buffer, 8 mM tetrabutylammonium hydrogensulfate, pH 6.5) at a flow rate of 0.45 ml min^−1. Autosampler temperature was maintained at 6° C. […] Nucleotides were detected by Acquity PDA detector (Waters, 260 nm) and quantified using ultrapure standards (Sigma). Data acquisition and processing was performed with the Empower3 software suite (Waters).
# Nucleotide sugars were measured with serum starvation during 18 hours of culturing and without of serum starvation and applying normal media.
# [2] = patient 1, 1 g/kg/day for additional 12 months
smiles,measurement,setting,value
"O=C[C@H](O)[C@@H](O)[C@@H](O)[C@H](O)CO [D-gal, D-galactose]",ALT levels,"PGM1-CDG patients; T0 to T2, p=0.05",significantly decreased
same,"ATIII, T0 vs T3","PGM1-CDG patients; all patient data, P=0.020",significant difference
same,AST,"PGM1-CDG patients; all patients except patient 2, 18 weeks","did not normalize at 18 weeks, it fell below baseline"
same,AST,"PGM1-CDG patients; all patients, 6 weeks",moderately declined
same,AST,"PGM1-CDG patients; all patients, 12 weeks vs baseline",declined by 23% to more than 10-fold
same,Creatine kinase and glucose levels,PGM1-CDG patients; during the study,fluctuated and remained abnormal
same,Frequency of hypoglycemic episodes,PGM1-CDG patients; during the study,decreased significantly in four patients
same,Laboratory parameters at 1.5 g/kg/day compared to 1 g/kg/day,PGM1-CDG patients; last 6 weeks of the trial,did not lead to significant improvement
same,"ALT, aPTT, ATIII, TSH, TBG, long-term",PGM1-CDG patients; [2],remained stable
same,"Factor XI and Factor XIII, long-term",PGM1-CDG patients; [2],returned to before-treatment levels
same,ATIII,"PGM1-CDG patients; patient 1, 18 weeks",remained within normal range
same,Factor XI,"PGM1-CDG patients; patient 1, after 12-18 weeks",normalized
same,Factor XIII,"PGM1-CDG patients; patient 1, after 12-18 weeks",normalized
same,"Creatine kinase decrease, long-term","PGM1-CDG patients; patient 1, over the course of one year",~80%
same,TSH,PGM1-CDG patients; patient 2 (abnormal baseline),normalized at 18 weeks
same,ATIII vs baseline,"PGM1-CDG patients; patient 2, 18 weeks",twofold higher than baseline
same,AST,"PGM1-CDG patients; patient 2, 18 weeks, after discontinuing galactose for 2 weeks","spiked upwards, almost reaching baseline"
same,"ALT, excess over baseline","PGM1-CDG patients; patient 2, 18 weeks, intercurrent illness",18%
same,ATIII drop,"PGM1-CDG patients; patient 2, following illness and cessation of galactose intake",30%
same,IGFBP-3,PGM1-CDG patients; patient 3,normalized at 18 weeks
same,TSH,PGM1-CDG patients; patient 5 (abnormal baseline),normalized at 6 weeks and remained stable at 12 and 18 weeks
same,ALT decrease,"PGM1-CDG patients; patient 5, 6 weeks",43%
same,ATIII,"PGM1-CDG patients; patient 5, 6 weeks",transiently normalized
same,ALT above the upper limit of normal,"PGM1-CDG patients; patient 5, 12 and 18 weeks",3%
same,ATIII below the lower limit of normal,"PGM1-CDG patients; patient 5, 12 and 18 weeks",8%
same,IGFBP-3,"PGM1-CDG patients; patient 6, 12 weeks",slight improvement
same,IGFBP-3 below the lower limit of normal,"PGM1-CDG patients; patient 6, 12 weeks",about 50%
same,TBG below the lower limit of normal,"PGM1-CDG patients; patient 6, 12 weeks",8%
same,TBG improvement,"PGM1-CDG patients; patient 6, 12 weeks",30%
same,TBG higher than the upper limit of normal,"PGM1-CDG patients; patient 9, 18 weeks",80%
same,TBG decline,"PGM1-CDG patients; patient 9, 18 weeks, baseline twofold the upper limit of normal",12%
same,ALT,"PGM1-CDG patients; patients 1, 2, 4, 7 (abnormal baseline)",normalized at 6 or 12 weeks
same,Factor IX levels,"PGM1-CDG patients; patients 1, 2, 5, 6, 9, 18 weeks",remained normal
same,IGFBP-3,PGM1-CDG patients; patients 1 and 2,normalized at 12 weeks and remained stable at 18 weeks
same,TBG,PGM1-CDG patients; patients 1 and 2,normalized at 6 weeks and remained stable at 12 and 18 weeks
same,ATIII,"PGM1-CDG patients; patients 1 and 2, 12 weeks",normalized
same,aPTT,PGM1-CDG patients; patients 1 and 7 (abnormal baseline),"normalized at 6 and 12 weeks, respectively"
same,aPTT,"PGM1-CDG patients; patients 2, 3, 5, 6 (normal baseline)",remained stable
same,ADP,"[1]; WT, 1 d 2 mM Galactose",483.78 pmol/mio cells
same,AMP,"[1]; WT, 1 d 2 mM Galactose",10.14 pmol/mio cells
same,ATP,"[1]; WT, 1 d 2 mM Galactose",2604.27 pmol/mio cells
same,CTP,"[1]; WT, 1 d 2 mM Galactose",291.83 pmol/mio cells
same,GDP,"[1]; WT, 1 d 2 mM Galactose",194.35 pmol/mio cells
same,GDP-Man,"[1]; WT, 1 d 2 mM Galactose",72.63 pmol/mio cells
same,GTP,"[1]; WT, 1 d 2 mM Galactose",491.50 pmol/mio cells
same,UDP,"[1]; WT, 1 d 2 mM Galactose",159.94 pmol/mio cells
same,UDP-Gal,"[1]; WT, 1 d 2 mM Galactose",400.64 pmol/mio cells
same,UDP-Glc,"[1]; WT, 1 d 2 mM Galactose",345.82 pmol/mio cells
same,UTP,"[1]; WT, 1 d 2 mM Galactose",1267.16 pmol/mio cells
same,cAMP,"[1]; WT, 1 d 2 mM Galactose",77.78 pmol/mio cells
same,ADP,"[1]; WT, 1 d + 0.75 mM Galactose",506.33 pmol/mio cells
same,AMP,"[1]; WT, 1 d + 0.75 mM Galactose",16.00 pmol/mio cells
same,ATP,"[1]; WT, 1 d + 0.75 mM Galactose",2677.06 pmol/mio cells
same,CTP,"[1]; WT, 1 d + 0.75 mM Galactose",288.74 pmol/mio cells
same,GDP,"[1]; WT, 1 d + 0.75 mM Galactose",215.25 pmol/mio cells
same,GDP-Man,"[1]; WT, 1 d + 0.75 mM Galactose",97.79 pmol/mio cells
same,GTP,"[1]; WT, 1 d + 0.75 mM Galactose",519.85 pmol/mio cells
same,UDP,"[1]; WT, 1 d + 0.75 mM Galactose",164.12 pmol/mio cells
same,UDP-Gal,"[1]; WT, 1 d + 0.75 mM Galactose",298.39 pmol/mio cells
same,UDP-Glc,"[1]; WT, 1 d + 0.75 mM Galactose",313.93 pmol/mio cells
same,UTP,"[1]; WT, 1 d + 0.75 mM Galactose",1283.20 pmol/mio cells
same,cAMP,"[1]; WT, 1 d + 0.75 mM Galactose",70.82 pmol/mio cells
same,ADP,"[1]; WT, 4 d 2 mM Galactose",800.89 pmol/mio cells
same,AMP,"[1]; WT, 4 d 2 mM Galactose",43.70 pmol/mio cells
same,ATP,"[1]; WT, 4 d 2 mM Galactose",4045.74 pmol/mio cells
same,CTP,"[1]; WT, 4 d 2 mM Galactose",267.44 pmol/mio cells
same,GDP,"[1]; WT, 4 d 2 mM Galactose",375.01 pmol/mio cells
same,GDP-Man,"[1]; WT, 4 d 2 mM Galactose",179.79 pmol/mio cells
same,GTP,"[1]; WT, 4 d 2 mM Galactose",706.71 pmol/mio cells
same,UDP,"[1]; WT, 4 d 2 mM Galactose",209.11 pmol/mio cells
same,UDP-Gal,"[1]; WT, 4 d 2 mM Galactose",227.46 pmol/mio cells
same,UDP-Glc,"[1]; WT, 4 d 2 mM Galactose",272.66 pmol/mio cells
same,UDP-GlcNAc,"[1]; WT, 4 d 2 mM Galactose",5.74 pmol/mio cells
same,UTP,"[1]; WT, 4 d 2 mM Galactose",1538.99 pmol/mio cells
same,cAMP,"[1]; WT, 4 d 2 mM Galactose",71.87 pmol/mio cells
same,ADP,"[1]; WT, 4 d + 0.75 mM Galactose",670.35 pmol/mio cells
same,AMP,"[1]; WT, 4 d + 0.75 mM Galactose",28.04 pmol/mio cells
same,ATP,"[1]; WT, 4 d + 0.75 mM Galactose",4021.73 pmol/mio cells
same,CTP,"[1]; WT, 4 d + 0.75 mM Galactose",254.91 pmol/mio cells
same,GDP,"[1]; WT, 4 d + 0.75 mM Galactose",307.92 pmol/mio cells
same,GDP-Man,"[1]; WT, 4 d + 0.75 mM Galactose",191.57 pmol/mio cells
same,GTP,"[1]; WT, 4 d + 0.75 mM Galactose",691.97 pmol/mio cells
same,UDP,"[1]; WT, 4 d + 0.75 mM Galactose",156.18 pmol/mio cells
same,UDP-Gal,"[1]; WT, 4 d + 0.75 mM Galactose",219.26 pmol/mio cells
same,UDP-Glc,"[1]; WT, 4 d + 0.75 mM Galactose",268.34 pmol/mio cells
same,UTP,"[1]; WT, 4 d + 0.75 mM Galactose",1495.61 pmol/mio cells
same,cAMP,"[1]; WT, 4 d + 0.75 mM Galactose",67.63 pmol/mio cells
same,UDP-Glc and UDP-Gal levels,"[1]; control cells, increase on first day of D-gal",normalized at 4 days
same,"Nucleotide sugar ratio UDP-Glc/UDP-Gal, mean","[1]; controls, both with or without D-gal",1.2
